The text below walks through data of patent publication US9862717B2 (Merck Patent GmbH, priority 2014, dated 2018).

Read-outs that look alike come from different tables or passages of the source.

In this assay the target is T1, CDK8/CycC (Homo sapiens, UniProt P49336).
T1 construct: purchased Invitrogen PV4402
The experiment in a line: FRET based Lanthascreen binding competition assay for CDK8 inhibitory activity. The note with it: CDK8 co-expressed with CycC, class symbols. In short, it runs like this:
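Competition binding of a dye-labeled ATP-competitive Alexa647 probe to CDK8 co-expressed with CycC, Eu-labeled via biotinylated anti-His antibody/streptavidin.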
(Time-resolved FRET reads energy transfer from a long-lived donor to a nearby acceptor.)

T1 sequence (P49336 whole entry): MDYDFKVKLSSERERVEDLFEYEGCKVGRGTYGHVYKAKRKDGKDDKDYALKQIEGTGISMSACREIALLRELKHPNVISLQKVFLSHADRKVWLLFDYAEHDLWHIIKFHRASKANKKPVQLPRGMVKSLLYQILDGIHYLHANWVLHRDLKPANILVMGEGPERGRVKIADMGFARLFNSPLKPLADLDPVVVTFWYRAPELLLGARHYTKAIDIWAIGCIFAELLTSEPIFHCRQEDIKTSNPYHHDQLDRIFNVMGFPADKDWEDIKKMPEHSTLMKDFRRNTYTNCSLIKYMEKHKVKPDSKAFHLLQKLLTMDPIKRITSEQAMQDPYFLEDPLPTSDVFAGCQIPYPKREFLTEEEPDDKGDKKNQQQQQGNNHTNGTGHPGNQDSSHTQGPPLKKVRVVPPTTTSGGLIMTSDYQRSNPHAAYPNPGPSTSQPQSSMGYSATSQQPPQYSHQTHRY
T1 sequence (P24863 whole entry partner): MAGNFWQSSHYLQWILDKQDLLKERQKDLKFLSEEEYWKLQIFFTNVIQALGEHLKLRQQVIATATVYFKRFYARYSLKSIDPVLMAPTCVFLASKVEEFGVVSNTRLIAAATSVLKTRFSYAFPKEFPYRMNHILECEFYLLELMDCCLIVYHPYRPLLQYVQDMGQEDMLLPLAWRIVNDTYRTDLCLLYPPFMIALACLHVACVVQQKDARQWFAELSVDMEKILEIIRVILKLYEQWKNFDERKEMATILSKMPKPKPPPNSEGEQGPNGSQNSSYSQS

For `Cc1n[nH]c2ncc(C(=O)N3CCC[C@H]3c3ccc(Cl)cc3F)cc12` [compound 225, [(S)-2-(4-Chloro-2-fluoro-phenyl)-pyrrolidin-1 yl]-(3-methyl-1H-pyrazolo[3,4-b]pyridin-5-yl)-methanone], the half-inhibitory concentration (IC50) (read-out: IC50) is less than 0.01 µM.
On the same count and under the same terms, under `Cc1n[nH]c2ncc(C(=O)N3CCC[C@@H]3c3ccc(Cl)cc3F)cc12` [compound 226, [(R)-2-(4-Chloro-2-fluoro-phenyl)-pyrrolidin-1-yl]-(3-methyl-1H-pyrazolo[3,4-b]pyridin-5-yl)-methanone] stands 1 to 10 µM; under `Cc1n[nH]c2ncc(C(=O)N3CCC[C@H]3c3ccc(Cl)c(F)c3)cc12` [compound 227, [(S)-2-(4-Chloro-3-fluoro-phenyl)-pyrrolidin-1-yl]-(3-methyl-1H-pyrazolo[3,4-b]pyridin-5-yl)-methanone], less than 0.01 µM.
Turning to `Cc1n[nH]c2ncc(C(=O)N3CCC[C@@H]3c3ccc(Cl)c(F)c3)cc12` [compound 228, [(R)-2-(4-Chloro-3-fluoro-phenyl)-pyrrolidin-1-yl]-(3-methyl-1H-pyrazolo[3,4-b]pyridin-5-yl)-methanone], the IC50 (read-out: IC50) is 1 to 10 µM.
On the same count and under the same terms, in the case of `Cc1n[nH]c2ncc(C(=O)N3CCC[C@@H]3c3ccc4cn[nH]c4c3)cc12` [compound 229, [(R)-2-(1H-Indazol-6-yl)-pyrrolidin-1-yl]-(3-methyl-1H-pyrazolo[3,4-b]pyridin-5-yl)-methanone] it was 1 to 10 µM; in that of `Cc1n[nH]c2ncc(C(=O)N3CCC[C@H]3c3ccc4cn[nH]c4c3)cc12` [compound 230, [(S)-2-(1H-Indazol-6-yl)-pyrrolidin-1-yl]-(3-methyl-1H-pyrazolo[3,4-b]pyridin-5-yl)-methanone], 0.01 to 0.1 µM.
The same measure, in the same setting: under `Cc1n[nH]c2ncc(C(=O)N3C[C@@H](C)C[C@@H]3c3ccc(C(F)(F)F)cc3)cc12` [compound 231, (3-Methyl-1H-pyrazolo[3,4-b]pyridin-5-yl)-[(2R,4S)-4-methyl-2-(4-trifluoromethyl-phenyl)-pyrrolidin-1-yl]-methanone] stands 1 to 10 µM; under `Cc1n[nH]c2ncc(C(=O)N3C[C@H](C)C[C@H]3c3ccc(C(F)(F)F)cc3)cc12` [compound 232, (3-Methyl-1H-pyrazolo[3,4-b]pyridin-5-yl)-[(2S,4R)-4-methyl-2-(4-trifluoromethyl-phenyl)-pyrrolidin-1-yl]-methanone], 0.01 to 0.1 µM.
On the same count and under the same terms, under `Cc1n[nH]c2ncc(C(=O)N3CCC(C(N)=O)CC3c3ccccc3)cc12` (centres unmarked) [compound 235, 1-(3-Methyl-1H-pyrazolo[3,4-b]pyridine-5-carbonyl)-2-phenyl-piperidine-4-carboxylic acid amide] stands 0.1 to 1 µM.
Where the note is “IC50 [μM]”, `CNc1n[nH]c2ccc(C(=O)N3CCC[C@H]3c3ccc(Cl)cc3)cc12` [compound 236, [(S)-2-(4-Chloro-phenyl)-pyrrolidin-1-yl]-(3-methylamino-1H-indazol-5-yl)-methanone] gave a concentration for half-maximal inhibition (IC50) of less than 0.01 µM.
Regarding `Cc1n[nH]c2ncc(C(=O)N3CCC(O)(c4ccc(Cl)cc4)C3)cc12` (centres unmarked) [compound 237, [3-(4-Chloro-phenyl)-3-hydroxy-pyrrolidin-1-yl]-(3-methyl-1H-pyrazolo[3,4-b]pyridin-5-yl)-methanone], the IC50 (read-out: IC50) was 0.1 to 1 µM.
Still for that read-out and setting: in the case of `Nc1n[nH]c2ccc(C(=O)N3CCC(O)(c4ccc(Cl)cc4)C3)cc12` (centres unmarked) [compound 238, (3-Amino-1H-indazol-5-yl)-[3-(4-chloro-phenyl)-3-hydroxy-pyrrolidin-1-yl]-methanone] it was 0.1 to 1 µM; in that of `O=C(c1cnc2[nH]ncc2c1)N1CCC[C@H]1c1ccc(Cl)cc1` [compound 239, [(S)-2-(4-Chloro-phenyl)-pyrrolidin-1-yl]-(1H-pyrazolo[3,4-b]pyridin-5-yl)-methanone], 0.1 to 1 µM.
On the same count and under the same terms, in the case of `Cc1n[nH]c2ncc(C(=O)N3CC[C@@H]3c3ccc(Cl)cc3)cc12` [compound 240, [(R)-2-(4-Chloro-phenyl)-azetidin-1-yl]-(3-methyl-1H-pyrazolo[3,4-b]pyridin-5-yl)-methanone] it was 1 to 10 µM.
On the same count and under the same terms, under `Cc1n[nH]c2ncc(C(=O)N3CC[C@H]3c3ccc(Cl)cc3)cc12` [compound 241, [(S)-2-(4-Chloro-phenyl)-azetidin-1-yl]-(3-methyl-1H-pyrazolo[3,4-b]pyridin-5-yl)-methanone] stands 0.01 to 0.1 µM; under `Cc1n[nH]c2ccc(C(=O)N3CCC[C@H]3c3ccc(F)cc3)nc12` [compound 242, (S)-(2-(4-fluorophenyl)pyrrolidin-1-yl)(3-methyl-1H-pyrazolo[4,3-b]pyridin-5-yl)methanone], less than 0.01 µM.
Regarding `COc1n[nH]c2ncc(C(=O)N3CCC[C@H]3c3ccc(Cl)cc3)cc12` [compound 243, (S)-(2-(4-chlorophenyl)pyrrolidin-1-yl)(3-methoxy-1H-pyrazolo[3,4-b]pyridin-5-yl)methanone], the half-maximal inhibitory concentration (IC50) (read-out: IC50) lay within 0.01 to 0.1 µM.
With `Cc1n[nH]c2ccc(C(=O)N3CCN(C)CC3c3ccc(Cl)cc3)cc12` (centres unmarked) [compound 244, (2-(4-chlorophenyl)-4-methylpiperazin-1-yl)(3-methyl-1H-indazol-5-yl)methanone], the half-inhibitory concentration (IC50) (IC50 [μM]) lay in the range of 0.01 to 0.1 µM.
For `Cc1n[nH]c2ncc(C(=O)N3CCC[C@H]3c3ccc4[nH]ncc4c3)cc12` [compound 245, [(S)-2-(1H-Indazol-5-yl)-pyrrolidin-1-yl]-(3-methyl-1H-pyrazolo[3,4-b]pyridin-5-yl)-methanone], the IC50 (read-out: IC50) fell in the range of 0.01 to 0.1 µM.
The same measure, in the same setting: in the case of `Cc1n[nH]c2ncc(C(=O)N3CCC[C@@H]3c3ccc4[nH]ncc4c3)cc12` [compound 246, [(R)-2-(1H-Indazol-5-yl)-pyrrolidin-1-yl]-(3-methyl-1H-pyrazolo[3,4-b]pyridin-5-yl)-methanone] it was 1 to 10 µM; in that of `Cc1n[nH]c2ncc(C(=O)N3CCC[C@H]3c3ccc(C#N)cc3)cc12` [compound 247, 4-[(S)-1-(3-Methyl-1H-pyrazolo[3,4-b]pyridine-5-carbonyl)-pyrrolidin-2-yl]-benzonitrile], 0.01 to 0.1 µM; in that of `Cc1n[nH]c2ncc(C(=O)N3CCC[C@@H]3c3ccc(C#N)cc3)cc12` [compound 248, 4-[(R)-1-(3-Methyl-1H-pyrazolo[3,4-b]pyridine-5-carbonyl)-pyrrolidin-2-yl]-benzonitrile], 1 to 10 µM.
With `Cc1n[nH]c2ncc(C(=O)N3CCC(CCO)(c4ccc(Cl)cc4)C3)cc12` (centres unmarked) [compound 249, [3-(4-Chloro-phenyl)-3-(2-hydroxy-ethyl)-pyrrolidin-1-yl]-(3-methyl-1H-pyrazolo[3,4-b]pyridin-5-yl)-methanone], the concentration for half-maximal inhibition (IC50) (read-out: IC50) is 0.01 to 0.1 µM.
Still for that read-out and setting: under `Nc1n[nH]c2ccc(C(=O)N3CCC(CCO)(c4ccc(Cl)cc4)C3)cc12` (centres unmarked) [compound 250, (3-Amino-1H-indazol-5-yl)-[3-(4-chloro-phenyl)-3-(2-hydroxy-ethyl)-pyrrolidin-1-yl]-methanone] stands 0.1 to 1 µM; under `Cc1n[nH]c2ncc(C(=O)N3C[C@H](N)C[C@H]3c3ccc(Cl)cc3)cc12` [compound 251, [(2S,4R)-4-Amino-2-(4-chloro-phenyl)-pyrrolidin-1-yl]-(3-methyl-1H-pyrazolo[3,4-b]pyridin-5-yl)-methanone], 0.1 to 1 µM.
The same measure, in the same setting: in the case of `Cc1n[nH]c2ncc(C(=O)N3CCC[C@H]3c3ccc(Cl)c(C#N)c3)cc12` [compound 252, 2-Chloro-5-[(S)-1-(3-methyl-1H-pyrazolo[3,4-b]pyridine-5-carbonyl)-pyrrolidin-2-yl]-benzonitrile] it was 0.1 to 1 µM.
Still for that read-out and setting: under `Cc1n[nH]c2ncc(C(=O)N3CCC[C@@H]3c3ccc(Cl)c(C#N)c3)cc12` [compound 253, 2-Chloro-5-[(R)-1-(3-methyl-1H-pyrazolo[3,4-b]pyridine-5-carbonyl)-pyrrolidin-2-yl]-benzonitrile] stands 1 to 10 µM; under `CN[C@@H]1C[C@@H](c2ccc(Cl)cc2)N(C(=O)c2cnc3[nH]nc(C)c3c2)C1` [compound 254, [(2S,4R)-2-(4-Chloro-phenyl)-4-methylamino-pyrrolidin-1-yl]-(3-methyl-1H-pyrazolo[3,4-b]pyridin-5-yl)-methanone], 0.1 to 1 µM.
With `Cc1n[nH]c2ncc(C(=O)N3C[C@@H](O)[C@H](c4ccc(Cl)cc4)C3)cc12` [compound 255, [(3R,4S)-3-(4-Chloro-phenyl)-4-hydroxy-pyrrolidin-1-yl]-(3-methyl-1H-pyrazolo[3,4-b]pyridin-5-yl)-methanone], the half-inhibitory concentration (IC50) (read-out: IC50) lay in the range of 1 to 10 µM.
The same measure, in the same setting: under `Cc1n[nH]c2ncc(C(=O)N3C[C@H](c4ccc(Cl)cc4)[C@@H](O)C3)cc12` [compound 256, [(3S,4R)-3-(4-Chloro-phenyl)-4-hydroxy-pyrrolidin-1-yl]-(3-methyl-1H-pyrazolo[3,4-b]pyridin-5-yl)-methanone] stands less than 0.01 µM.
The same measure, in the same setting: under `Cc1n[nH]c2ccc(C(=O)N3CCC[C@H]3c3ccc(C(F)(F)F)cc3)nc12` [compound 257, (S)-(3-Methyl-1H-pyrazolo[4,3-b]pyridin-5-yl)(2-(4-(trifluoromethyl)phenyl)pyrrolidin-1-yl)methanone] stands less than 0.01 µM; under `Cc1n[nH]c2ncc(C(=O)N3CCC[C@@H]3c3cccc(C#N)c3)cc12` [compound 258, 3-[(R)-1-(3-Methyl-1H-pyrazolo[3,4-b]pyridine-5-carbonyl)-pyrrolidin-2-yl]-benzonitrile], 1 to 10 µM; under `Cc1n[nH]c2ncc(C(=O)N3CCC[C@H]3c3cccc(C#N)c3)cc12` [compound 259, 3-[(S)-1-(3-Methyl-1H-pyrazolo[3,4-b]pyridine-5-carbonyl)-pyrrolidin-2-yl]-benzonitrile], 0.1 to 1 µM.
Still for that read-out and setting: in the case of `Cc1n[nH]c2ccc(C(=O)N3CCCC3c3ccc(Cl)c(F)c3)nc12` (centres unmarked) [compound 260, (2-(4-chloro-3-fluorophenyl)pyrrolidin-1-yl)(3-methyl-1H-pyrazolo[4,3-b]pyridin-5-yl)methanone] it was less than 0.01 µM.
As to `Cc1n[nH]c2ncc(C(=O)N3C[C@H](O)C[C@H]3c3ccc(Cl)cc3)cc12` [compound 261, [(2S,4R)-2-(4-Chloro-phenyl)-4-hydroxy-pyrrolidin-1-yl]-(3-methyl-1H-pyrazolo[3,4-b]pyridin-5-yl)-methanone], the concentration for half-maximal inhibition (IC50) (read-out: IC50) fell in the range of 0.1 to 1 µM.

By IC50 is commonly meant the concentration needed to halve the response being measured.
